Reference: patent publication US6358885B1, “Substituted phenylheterocyclic herbicides” (Mississippi State University, priority 1992, dated 2002)

Assays:
wild oat [1] = assay: Test C preemergence/postemergence greenhouse plant response rating 0 to 100; format: in vivo, Avena fatua; settings: POSTEMERGENCE; for Plant response rating, Wild oat: 0 to 100 scale
How it was run: (§1)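 Compounds in non-phytotoxic solvent applied preemergence to sandy loam one day after planting, postemergence at the 1–4 leaf stage, or to ~2.5 cm floodwater over silt loam.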

sorghum [2] = assay: Test B preemergence/postemergence greenhouse plant response rating 0 to 10; format: in vivo, Sorghum bicolor; settings: 0 to 10 scale
How it was run: (§2)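 Test chemicals were sprayed onto freshly planted seed and, concurrently, onto young plants between the one and four leaf stage. After a twelve- to sixteen-day greenhouse period, each species was visually compared with untreated controls.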

barnyardgrass = assay: Test C flood test plant response rating 0 to 100; format: in vivo, Echinochloa crus-galli; settings: for Plant response rating (0 to 100), Barnyardgrass: under POSTEMERGENCE head (flood test species); for Plant response rating, Barnyardgrass: flood test species listed under POSTEMERGENCE, 0 to 100 scale
How it was run: as §1

barley = assay: Test B preemergence/postemergence greenhouse plant response rating 0 to 10; format: in vivo, Hordeum vulgare; settings: for Plant response rating, Barley: 0 to 10 scale
How it was run: as §2

wheat [3] = assay: as above; format: in vivo, Triticum aestivum; settings: 0 to 10 scale
How it was run: as §2

cotton = assay: as above; format: in vivo, Gossypium hirsutum; settings: for Plant response rating, Cotton: 0 to 10 scale
How it was run: as §2

sugar beet = assay: as above; format: in vivo, Beta vulgaris; settings: 0 to 10 scale
How it was run: as §2

bedstraw = assay: as above; format: in vivo, Galium aparine; settings: for Plant response rating, Bedstraw: 0 to 10 scale
How it was run: as §2

sorghum [4] = assay: Test C preemergence/postemergence greenhouse plant response rating 0 to 100; format: in vivo, Sorghum bicolor; settings: POSTEMERGENCE; for Plant response rating, Sorghum: 0 to 100 scale
How it was run: as §1

lambsquarters = assay: Test B preemergence/postemergence greenhouse plant response rating 0 to 10; format: in vivo, Chenopodium album; settings: 0 to 10 scale
How it was run: as §2

crabgrass = assay: Test C preemergence/postemergence greenhouse plant response rating 0 to 100; format: in vivo, Digitaria sanguinalis; settings: POSTEMERGENCE; for Plant response rating, Crabgrass: 0 to 100 scale
How it was run: as §1

wild buckwheat = assay: as above; format: in vivo, Polygonum convolvulus; settings: POSTEMERGENCE; for Plant response rating, Wild buckwheat: 0 to 100 scale
How it was run: as §1

downy brome = assay: as above; format: in vivo, Bromus tectorum; settings: POSTEMERGENCE; for Plant response rating Downy Brome: 0 to 100 scale
How it was run: as §1

rape = assay: as above; format: in vivo, Brassica napus; settings: POSTEMERGENCE; for Plant response rating, Rape: 0 to 100 scale
How it was run: as §1

wild oat [5] = assay: Test B preemergence/postemergence greenhouse plant response rating 0 to 10; format: in vivo, Avena fatua; settings: POSTEMERGENCE, 0 to 10 scale
How it was run: as §2

wheat [6] = assay: Test C preemergence/postemergence greenhouse plant response rating 0 to 100; format: in vivo, Triticum aestivum; settings: POSTEMERGENCE; for Plant response rating, Wheat: 0 to 100 scale
How it was run: as §1

blackgrass = assay: Test B preemergence/postemergence greenhouse plant response rating 0 to 10; format: in vivo, Alopecurus myosuroides; settings: for Plant response rating, Blackgrass: 0 to 10 scale
How it was run: as §2

ryegrass = assay: Test C preemergence/postemergence greenhouse plant response rating 0 to 100; format: in vivo, Lolium multiflorum; settings: POSTEMERGENCE; for Plant response rating Ryegrass: 0 to 100 scale
How it was run: as §1

CC(C)COc1cc(-c2nn3c(c2Cl)CCCC3)c(F)cc1Cl [Compound 30]
85: Plant response rating (0 to 100), Barnyardgrass (barnyardgrass; Rate 4 g/ha)
80: Plant response rating, Wild oat (wild oat [1]; 250 g/ha) | Plant response rating, Wild buckwheat (wild buckwheat; 62 g/ha) | Plant response rating (0 to 100), Rape (rape; Rate 16 g/ha) | Plant response rating Ryegrass (ryegrass; 250 g/ha)
2: Plant response rating, Barley (barley; Rate 200 g/ha, PREEMERGENCE) | Plant response rating, Wheat (wheat [3]; Rate 200 g/ha, PREEMERGENCE) | Plant response rating, Cotton (cotton; PREEMERGENCE, Rate 50 g/ha)
4: Plant response rating, Sorghum (sorghum [2]; POSTEMERGENCE, Rate 50 g/ha) | Plant response rating, Wheat (wheat [3]; POSTEMERGENCE, Rate 50 g/ha)
95: Plant response rating (0 to 100), Barnyardgrass (barnyardgrass; Rate 16 g/ha)
10: Plant response rating (0 to 10 scale), Cotton (cotton; POSTEMERGENCE, Rate 50 g/ha) | Plant response rating, Cotton (cotton; POSTEMERGENCE, Rate 200 g/ha) | Plant response rating, Sugar beet (sugar beet; POSTEMERGENCE, Rate 50 g/ha) | Plant response rating, Sugar beet (sugar beet; Rate 200 g/ha, POSTEMERGENCE) | Plant response rating, Bedstraw (bedstraw; POSTEMERGENCE, Rate 200 g/ha) | Plant response rating, Lambsquarter (lambsquarters; POSTEMERGENCE, Rate 50 g/ha) | Plant response rating, Lambsquarter (lambsquarters; Rate 200 g/ha, POSTEMERGENCE) | Plant response rating, Lambsquarter (lambsquarters; Rate 200 g/ha, PREEMERGENCE)
90: Plant response rating Downy Brome (downy brome; 250 g/ha) | Plant response rating, Wheat (wheat [6]; 250 g/ha)
60: Plant response rating, Wild oat (wild oat [1]; 62 g/ha) | Plant response rating Downy Brome (downy brome; 62 g/ha) | Plant response rating, Wheat (wheat [6]; 62 g/ha) | Plant response rating Ryegrass (ryegrass; 62 g/ha)
6: Plant response rating, Sorghum (sorghum [2]; Rate 200 g/ha, POSTEMERGENCE) | Plant response rating, Barley (barley; POSTEMERGENCE, Rate 200 g/ha) | Plant response rating, Cotton (cotton; Rate 200 g/ha, PREEMERGENCE) | Plant response rating, Wild oat (wild oat [5]; Rate 200 g/ha)
50: Plant response rating (0 to 100), Wild buckwheat (wild buckwheat; Rate 4 g/ha) | Plant response rating (0 to 100), Rape (rape; Rate 4 g/ha)
8: Plant response rating (0 to 10 scale), Bedstraw (bedstraw; POSTEMERGENCE, Rate 50 g/ha) | Plant response rating, Lambsquarter (lambsquarters; PREEMERGENCE, Rate 50 g/ha)
9: Plant response rating, Sugar beet (sugar beet; Rate 200 g/ha, PREEMERGENCE) | Plant response rating, Bedstraw (bedstraw; Rate 200 g/ha, PREEMERGENCE)
5: Plant response rating (0 to 10 scale), Barley (barley; POSTEMERGENCE, Rate 50 g/ha) | Plant response rating, Wheat (wheat [3]; Rate 200 g/ha, POSTEMERGENCE) | Plant response rating, Sugar beet (sugar beet; PREEMERGENCE, Rate 50 g/ha) | Plant response rating, Wild oat (wild oat [5]; Rate 50 g/ha) | Plant response rating (0 to 10 scale), Blackgrass (blackgrass; POSTEMERGENCE, Rate 50 g/ha) | Plant response rating, Blackgrass (blackgrass; POSTEMERGENCE, Rate 200 g/ha)
0: Plant response rating, Sorghum (sorghum [2]; PREEMERGENCE, Rate 50 g/ha) | Plant response rating, Sorghum (sorghum [2]; Rate 200 g/ha, PREEMERGENCE) | Plant response rating, Barley (barley; PREEMERGENCE, Rate 50 g/ha) | Plant response rating, Wheat (wheat [3]; PREEMERGENCE, Rate 50 g/ha) | Plant response rating, Bedstraw (bedstraw; PREEMERGENCE, Rate 50 g/ha) | Plant response rating (0 to 100), Sorghum (sorghum [4]; Rate 4 g/ha) | Plant response rating (0 to 100), Sorghum (sorghum [4]; Rate 16 g/ha) | Plant response rating, Crabgrass (crabgrass; 62 g/ha) | Plant response rating (0 to 100), Crabgrass (crabgrass; Rate 4 g/ha) | Plant response rating (0 to 100), Crabgrass (crabgrass; Rate 16 g/ha) | Plant response rating, Blackgrass (blackgrass; PREEMERGENCE, Rate 50 g/ha) | Plant response rating, Blackgrass (blackgrass; Rate 200 g/ha, PREEMERGENCE)
20: Plant response rating (0 to 100), Wild oat (wild oat [1]; Rate 4 g/ha) | Plant response rating, Sorghum (sorghum [4]; 62 g/ha) | Plant response rating, Crabgrass (crabgrass; 250 g/ha) | Plant response rating (0 to 100), Downy Brome (downy brome; Rate 4 g/ha) | Plant response rating (0 to 100), Wheat (wheat [6]; Rate 4 g/ha) | Plant response rating (0 to 100), Ryegrass (ryegrass; Rate 4 g/ha)
100: Plant response rating, Barnyardgrass (barnyardgrass; 62 g/ha) | Plant response rating, Barnyardgrass (barnyardgrass; 250 g/ha) | Plant response rating, Wild buckwheat (wild buckwheat; 250 g/ha) | Plant response rating, Rape (rape; 62 g/ha) | Plant response rating, Rape (rape; 250 g/ha)
70: Plant response rating (0 to 100), Wild buckwheat (wild buckwheat; Rate 16 g/ha)
30: Plant response rating (0 to 100), Wheat (wheat [6]; Rate 16 g/ha)
40: Plant response rating (0 to 100), Wild oat (wild oat [1]; Rate 16 g/ha) | Plant response rating, Sorghum (sorghum [4]; 250 g/ha) | Plant response rating (0 to 100), Downy Brome (downy brome; Rate 16 g/ha) | Plant response rating (0 to 100), Ryegrass (ryegrass; Rate 16 g/ha)
